pKd: −log10 of the molar value. Like-named read-outs stand apart in the source and are kept apart here. Where a SMILES comes first, the peptide text is derived from it. Bridges are numbered along the chain shown (N, C = ends). [ ]: non-standard residue; d: D form. The star is where a group is joined. hPhe(3-Cl-4-CF3) = N[C@@H](CCc1ccc(C(F)(F)F)c(Cl)c1)C(=O)O; NPrPhe(4-CF3) = CCCN[C@@H](Cc1ccc(C(F)(F)F)cc1)C(=O)O; NEtPhe(4-CF3) = CCN[C@@H](Cc1ccc(C(F)(F)F)cc1)C(=O)O; NMeGly(cPent) = CN[C@H](C(=O)O)C1CCCC1; NMeD = CN[C@@H](CC(=O)O)C(=O)O; NMeL = CN[C@@H](CC(C)C)C(=O)O; Ac6c = NC1(C(=O)O)CCCCC1; Morpholide = C1CN(*)CCO1; Ac5c = NC1(C(=O)O)CCCC1; NEtG = CCNCC(=O)O; Sar = CNCC(=O)O
What was measured:
[1] = target: GDP-bound KRAS wild-type protein (Homo sapiens, UniProt P01116); experiment: Binding to KRAS by surface plasmon resonance (SPR), Single Cycle Kinetics; settings: GDP-bound KRAS wild-type protein, read-out: KRAS KD
GDP-bound KRAS wild-type protein, sequence (P01116 whole entry): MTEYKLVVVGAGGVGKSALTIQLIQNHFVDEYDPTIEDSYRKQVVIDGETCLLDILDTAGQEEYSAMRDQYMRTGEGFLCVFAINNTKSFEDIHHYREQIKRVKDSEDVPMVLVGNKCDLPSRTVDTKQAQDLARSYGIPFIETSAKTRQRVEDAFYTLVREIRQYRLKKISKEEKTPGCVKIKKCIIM

[2] = target: GDP-bound NRAS wild-type protein (Homo sapiens, UniProt P01111); experiment: Binding to NRAS by surface plasmon resonance (SPR), Single Cycle Kinetics; settings: for NRAS/KRAS (ratio of KD value for NRAS to KD value for KRAS) / NRAS/KRAS (ratio of KD value with respect to NRAS to KD value with respect to KRAS): SPR, GDP-bound NRAS wild-type protein vs GDP-bound KRAS wild-type protein
GDP-bound NRAS wild-type protein, sequence (P01111 whole entry): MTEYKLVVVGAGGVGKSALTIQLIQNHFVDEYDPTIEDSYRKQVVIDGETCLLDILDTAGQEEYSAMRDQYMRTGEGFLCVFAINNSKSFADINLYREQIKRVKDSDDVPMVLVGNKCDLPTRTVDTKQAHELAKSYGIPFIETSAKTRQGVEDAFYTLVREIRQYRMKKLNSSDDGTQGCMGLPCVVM

[3] = target: GDP-bound HRAS wild-type protein (Homo sapiens, UniProt P01112); experiment: Binding to HRAS by surface plasmon resonance (SPR), Single Cycle Kinetics; settings: for HRAS/KRAS (ratio of KD value for HRAS to KD value for KRAS) / HRAS/KRAS (ratio of KD value with respect to HRAS to KD value with respect to KRAS): SPR, GDP-bound HRAS wild-type protein vs GDP-bound KRAS wild-type protein
GDP-bound HRAS wild-type protein, sequence (P01112 whole entry): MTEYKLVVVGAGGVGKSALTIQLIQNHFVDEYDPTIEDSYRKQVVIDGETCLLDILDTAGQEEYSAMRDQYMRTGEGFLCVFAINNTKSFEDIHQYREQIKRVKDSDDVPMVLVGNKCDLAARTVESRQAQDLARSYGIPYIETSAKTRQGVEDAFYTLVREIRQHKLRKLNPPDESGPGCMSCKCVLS

[4] = SPR Single Cycle Kinetics, 1:1 binding model

Compound | pKd ([1]; SPR, Single Cycle Kinetics) | NRAS/KRAS (ratio of KD value for NRAS to KD value for KRAS) [2] | HRAS/KRAS (ratio of KD value for HRAS to KD value for KRAS) [3] | pKd [1, 4] | other results
CC[C@H](C)[C@@H]1NC(=O)[C@H](CC(C)C)N(C)C(=O)C[C@@H](C(=O)N2CCOCC2)N(C)C(=O)[C@H](C2CCCC2)N(C)C(=O)C2(CCC2)NC(=O)[C@@H]2[C@H](OC)CCN2C(=O)[C@H](CCc2cc(F)c(C(F)(F)F)c(F)c2)NC(=O)CN(C)C(=O)[C@H](Cc2ccc(C(F)(F)F)cc2)N2CCCCC[C@@H](C2=O)N(C)C(=O)CN(C)C1=O [PP1085] | 9.02 | A (a compound having 10 or more and less than 20 is denoted as A) | A (a compound having 10 or more and less than 20 is denoted as A) | – | –
CCO[C@@H]1C[C@H]2C(=O)NC3(CC(C)(C)C3)C(=O)N(C)[C@@H](C(CC)CC)C(=O)N(C)[C@H](C(=O)N(C)C)CC(=O)N(C)[C@H]3CCCCC/C=C/c4ccc(cc4)C[C@@H](C(=O)N(C)CC(=O)N[C@@H](CCc4cc(F)c(C(F)(F)F)c(F)c4)C(=O)N2C1)N1CC/C=C\C[C@@H](C1=O)N(C)C(=O)CN(C)C(=O)[C@H]([C@@H](C)CC)NC3=O [PP3048] | 9.96 | A (a compound having 10 or more and less than 20 is denoted as A) | A (a compound having 10 or more and less than 20 is denoted as A) | – | –
CCO[C@@H]1C[C@H]2C(=O)NC3(CC(C)(C)C3)C(=O)N(C)[C@@H](C3CCCC3)C(=O)N(C)[C@H](C(=O)N(C)CC)CC(=O)N(C)[C@H]3CCC/C=C/c4ccc(cc4)C[C@@H](C(=O)N(C)CC(=O)N[C@@H](CCc4ccc(Cl)c(Cl)c4)C(=O)N2C1)N1CC/C=C\C[C@@H](C1=O)N(C)C(=O)CN(C)C(=O)[C@H]([C@@H](C)CC)NC3=O [PP2577] | – | – | – | 9.92 | NRAS/KRAS (ratio of KD value with respect to GDP-bound NRAS wild-type protein to KD value with respect to KRAS) ([2]; SPR KD ratio NRAS/KRAS, class symbols): A (a compound having 10 or more and less than 20 is denoted as A); HRAS/KRAS (ratio of KD value with respect to GDP-bound HRAS wild-type protein to KD value with respect to KRAS) ([3]; SPR KD ratio HRAS/KRAS, class symbols): A (a compound having 10 or more and less than 20 is denoted as A)
CCCN1C(=O)CN(C)C(=O)CN(C)C(=O)[C@H]([C@@H](C)CC)NC(=O)[C@H](CC(C)C)N(C)C(=O)C[C@@H](C(=O)N2CCOCC2)N(C)C(=O)[C@H](C2CCCC2)N(C)C(=O)C2(CCCC2)NC(=O)CN(CC)C(=O)[C@H](CCc2ccc(C(F)(F)F)c(Cl)c2)NC(=O)CN(C)C(=O)[C@@H]1Cc1ccc(C(F)(F)F)cc1 [PP0144] ([NMeL]I[Sar][Sar][NPrPhe(4-CF3)][Sar][hPhe(3-Cl-4-CF3)][NEtG][Ac5c][NMeGly(cPent)][NMeD]-Morpholide; lactam N-11) | – | B (a compound having 3 or more and less than 10 is denoted as B) | C (A compound having a KD ratio of 0.1 or more and less than 3 is denoted as C) | 9.62 | –
CCC[C@H]1C(=O)N[C@@H]([C@@H](C)CC)C(=O)N(C)CC(=O)N(C)[C@H]2C/C=C\CCN(C2=O)[C@@H](Cc2ccc(C)cc2)C(=O)N(C)CC(=O)N[C@@H](CCc2ccc(C(F)(F)F)c(Cl)c2)C(=O)N2C[C@H](CC)C[C@H]2C(=O)NC2(CC(C)(C)C2)C(=O)N(C)[C@@H](C2CCCC2)C(=O)N(C)[C@H](C(=O)N(C)C)CC(=O)N1C [PP2212] | 9.47 | A (a compound having 10 or more and less than 20 is denoted as A) | B (a compound having 3 or more and less than 10 is denoted as B) | – | –
CCO[C@@H]1C[C@H]2C(=O)NC3(CCC3)C(=O)N(C)[C@@H](C3CCCC3)C(=O)N(C)[C@H](C(=O)N(C)C)CC(=O)N(C)[C@@H](CC3CCCCC3)C(=O)N[C@@H]([C@@H](C)CC)C(=O)N(C)CC(=O)N(C)[C@H]3CCCCN(C3=O)[C@@H](Cc3ccc(C(F)(F)F)cc3)C(=O)N(C)CC(=O)N[C@@H](CCc3cc(F)c(C(F)(F)F)c(F)c3)C(=O)N2C1 [PP0701] | – | – | – | 10.77 | NRAS/KRAS (ratio of KD value with respect to NRAS to KD value with respect to KRAS) [2]: C (A compound having a KD ratio of 0.1 or more and less than 3 is denoted as C); HRAS/KRAS (ratio of KD value with respect to HRAS to KD value with respect to KRAS) [3]: B (a compound having 3 or more and less than 10 is denoted as B)
CCO[C@@H]1C[C@H]2C(=O)NC3(CCC3)C(=O)N(C)[C@@H](C3CCCC3)C(=O)N(C)[C@H](C(=O)N(C)CC)CC(=O)N(C)[C@H]3CCCCCc4ccc(cc4)C[C@@H](C(=O)N(C)CC(=O)N[C@@H](CCc4ccc(C(F)(F)F)c(OC)c4)C(=O)N2C1)N1CC/C=C\C[C@@H](C1=O)N(C)C(=O)CN(C)C(=O)[C@H]([C@@H](C)CC)NC3=O [PP2118] | 9.82 | A (a compound having 10 or more and less than 20 is denoted as A) | B (a compound having 3 or more and less than 10 is denoted as B) | – | –
CC[C@H](C)[C@@H]1NC(=O)[C@H](CC(C)C)N(C)C(=O)C[C@@H](C(=O)N2CCOCC2)N(C)C(=O)[C@H](C2CCCC2)N(C)C(=O)C2(CC2)NC(=O)[C@@H]2CCCN2C(=O)[C@H](CCc2cc(F)c(C(F)(F)F)c(F)c2)NC(=O)CN(C)C(=O)[C@H](Cc2ccc(C(F)(F)F)cc2)N2CCCC[C@@H](C2=O)N(C)C(=O)CN(C)C1=O [PP0559] | – | – | – | 9.80 | NRAS/KRAS (ratio of KD value with respect to NRAS to KD value with respect to KRAS) [2]: B (a compound having 3 or more and less than 10 is denoted as B); HRAS/KRAS (ratio of KD value with respect to HRAS to KD value with respect to KRAS) [3]: B (a compound having 3 or more and less than 10 is denoted as B)
CCO[C@@H]1C[C@H]2C(=O)NC3(CCC3)C(=O)N(C)[C@@H](C3CCCC3)C(=O)N(C)[C@H](C(=O)N(C)C)CC(=O)N(C)[C@@H](CC(C)C)C(=O)N[C@@H]([C@@H](C)CC)C(=O)N3CC[C@H]3C(=O)N(C)[C@H]3CC(C)=C(C)CN(C3=O)[C@@H](Cc3ccc(C(F)(F)F)cc3)C(=O)N(C)CC(=O)N[C@@H](CCc3cc(F)c(C(F)(F)F)c(F)c3)C(=O)N2C1 [PP1047] | 9.07 | C (A compound having a KD ratio of 0.1 or more and less than 3 is denoted as C) | C (A compound having a KD ratio of 0.1 or more and less than 3 is denoted as C) | – | –
CCO[C@@H]1C[C@H]2C(=O)NC3(CCC3)C(=O)N(C)[C@@H](C3CCCC3)C(=O)N(C)[C@H](C(=O)N3CCOCC3)CC(=O)N(C)[C@@H](CC3CC3)C(=O)N[C@@H]([C@@H](C)CC)C(=O)N(C)CC(=O)N(C)[C@H]3C/C=C\CCN(C3=O)[C@@H](Cc3ccc(F)cc3)C(=O)N(C)CC(=O)N[C@@H](CCc3cc(F)c(C(F)(F)F)c(F)c3)C(=O)N2C1 [PP1496] | – | – | – | – | pKd ([1]; SPR, Single Cycle Kinetics, 1:1 binding model): 9.59; NRAS/KRAS (ratio of KD value for NRAS to KD value for KRAS) ([2]; KD ratio class): A (a compound having 10 or more and less than 20 is denoted as A); HRAS/KRAS (ratio of KD value for HRAS to KD value for KRAS) ([3]; KD ratio class): B (a compound having 3 or more and less than 10 is denoted as B)
CC[C@H](C)[C@@H]1NC(=O)[C@H](CC(C)C)N(C)C(=O)C[C@@H](C(=O)N2CCOCC2)N(C)C(=O)[C@H](C2CCCC2)N(C)C(=O)C2(CCCCC2)NC(=O)[C@@H]2CCCN2C(=O)[C@H](CCc2ccc(C(F)(F)F)c(Cl)c2)NC(=O)CN(C)C(=O)[C@H](Cc2ccc(C(F)(F)F)cc2)N(CC)C(=O)CN(C)C(=O)CN(C)C1=O [PP0236] ([NMeL]I[Sar][Sar][NEtPhe(4-CF3)][Sar][hPhe(3-Cl-4-CF3)]P[Ac6c][NMeGly(cPent)][NMeD]-Morpholide; lactam N-11) | – | B (a compound having 3 or more and less than 10 is denoted as B) | C (A compound having a KD ratio of 0.1 or more and less than 3 is denoted as C) | 9.27 | –
CCO[C@@H]1C[C@H]2C(=O)NC3(CCC3)C(=O)N(C)[C@@H](C3CCCC3)C(=O)N(C)[C@H](C(=O)N(C)C)CC(=O)N(C)[C@@H](CSC)C(=O)N[C@@H]([C@@H](C)CC)C(=O)N(C)CC(=O)N(C)[C@H]3C/C=C\CCN(C3=O)[C@@H](Cc3ccc(C(F)(F)F)cc3)C(=O)N(C)CC(=O)N[C@@H](CCc3cc(F)c(C(F)(F)F)c(F)c3)C(=O)N2C1 [PP1119, (2S,8S,12R,14S,20S,23S,27R,30S,36S,38Z)-20-cyclopentyl-8-[2-[3,5-difluoro-4-(trifluoromethyl)phenyl]ethyl]-12-ethoxy-N,N,4,19,22,26,32,35-octamethyl-30-[(1S)-1-methylpropyl]-27-(methylsulfanylmethyl)-3,6,9,15,18,21,25,28,31,34,42-undecaoxo-2-[[4-(trifluoromethyl)phenyl]methyl]spiro[1,4,7,10,16,19,22,26,29,32,35-undecazatricyclo[34.5.1.0^10,14]dotetracont-38-ene-17,1′-cyclobutane]-23-carboxamide] | 10.43 | A (a compound having 10 or more and less than 20 is denoted as A) | A (a compound having 10 or more and less than 20 is denoted as A) | – | –
CCC[C@H]1C(=O)N[C@@H]([C@@H](C)CC)C(=O)N(C)CC(=O)N(C)[C@H]2C/C=C\CCN(C2=O)[C@@H](Cc2ccc(C(F)(F)F)cc2)C(=O)N(C)CC(=O)N[C@@H](CCc2ccc(C(F)(F)F)c(Cl)c2)C(=O)N2C[C@H](OCC)C[C@H]2C(=O)NC2(CC(C)(C)C2)C(=O)N(C)[C@@H](CC(C)C)C(=O)N(C)[C@H](C(=O)N(C)C)CC(=O)N1C [PP2977] | 9.52 | A (a compound having 10 or more and less than 20 is denoted as A) | A (a compound having 10 or more and less than 20 is denoted as A) | – | –

— patent publication US20240158446A1, “CYCLIC COMPOUND HAVING SELECTIVE INHIBITORY ACTION ON KRAS OVER HRAS AND NRAS” (CHUGAI SEIYAKU KABUSHIKI KAISHA, priority 2021, published 2024)
